Data on eight compounds can be found in patent publication US7459480B2, “Benzodioxepine derivatives” (Hoffmann-La Roche Inc., priority 2003, dated 2008).

T1 sequence (O00763 whole entry): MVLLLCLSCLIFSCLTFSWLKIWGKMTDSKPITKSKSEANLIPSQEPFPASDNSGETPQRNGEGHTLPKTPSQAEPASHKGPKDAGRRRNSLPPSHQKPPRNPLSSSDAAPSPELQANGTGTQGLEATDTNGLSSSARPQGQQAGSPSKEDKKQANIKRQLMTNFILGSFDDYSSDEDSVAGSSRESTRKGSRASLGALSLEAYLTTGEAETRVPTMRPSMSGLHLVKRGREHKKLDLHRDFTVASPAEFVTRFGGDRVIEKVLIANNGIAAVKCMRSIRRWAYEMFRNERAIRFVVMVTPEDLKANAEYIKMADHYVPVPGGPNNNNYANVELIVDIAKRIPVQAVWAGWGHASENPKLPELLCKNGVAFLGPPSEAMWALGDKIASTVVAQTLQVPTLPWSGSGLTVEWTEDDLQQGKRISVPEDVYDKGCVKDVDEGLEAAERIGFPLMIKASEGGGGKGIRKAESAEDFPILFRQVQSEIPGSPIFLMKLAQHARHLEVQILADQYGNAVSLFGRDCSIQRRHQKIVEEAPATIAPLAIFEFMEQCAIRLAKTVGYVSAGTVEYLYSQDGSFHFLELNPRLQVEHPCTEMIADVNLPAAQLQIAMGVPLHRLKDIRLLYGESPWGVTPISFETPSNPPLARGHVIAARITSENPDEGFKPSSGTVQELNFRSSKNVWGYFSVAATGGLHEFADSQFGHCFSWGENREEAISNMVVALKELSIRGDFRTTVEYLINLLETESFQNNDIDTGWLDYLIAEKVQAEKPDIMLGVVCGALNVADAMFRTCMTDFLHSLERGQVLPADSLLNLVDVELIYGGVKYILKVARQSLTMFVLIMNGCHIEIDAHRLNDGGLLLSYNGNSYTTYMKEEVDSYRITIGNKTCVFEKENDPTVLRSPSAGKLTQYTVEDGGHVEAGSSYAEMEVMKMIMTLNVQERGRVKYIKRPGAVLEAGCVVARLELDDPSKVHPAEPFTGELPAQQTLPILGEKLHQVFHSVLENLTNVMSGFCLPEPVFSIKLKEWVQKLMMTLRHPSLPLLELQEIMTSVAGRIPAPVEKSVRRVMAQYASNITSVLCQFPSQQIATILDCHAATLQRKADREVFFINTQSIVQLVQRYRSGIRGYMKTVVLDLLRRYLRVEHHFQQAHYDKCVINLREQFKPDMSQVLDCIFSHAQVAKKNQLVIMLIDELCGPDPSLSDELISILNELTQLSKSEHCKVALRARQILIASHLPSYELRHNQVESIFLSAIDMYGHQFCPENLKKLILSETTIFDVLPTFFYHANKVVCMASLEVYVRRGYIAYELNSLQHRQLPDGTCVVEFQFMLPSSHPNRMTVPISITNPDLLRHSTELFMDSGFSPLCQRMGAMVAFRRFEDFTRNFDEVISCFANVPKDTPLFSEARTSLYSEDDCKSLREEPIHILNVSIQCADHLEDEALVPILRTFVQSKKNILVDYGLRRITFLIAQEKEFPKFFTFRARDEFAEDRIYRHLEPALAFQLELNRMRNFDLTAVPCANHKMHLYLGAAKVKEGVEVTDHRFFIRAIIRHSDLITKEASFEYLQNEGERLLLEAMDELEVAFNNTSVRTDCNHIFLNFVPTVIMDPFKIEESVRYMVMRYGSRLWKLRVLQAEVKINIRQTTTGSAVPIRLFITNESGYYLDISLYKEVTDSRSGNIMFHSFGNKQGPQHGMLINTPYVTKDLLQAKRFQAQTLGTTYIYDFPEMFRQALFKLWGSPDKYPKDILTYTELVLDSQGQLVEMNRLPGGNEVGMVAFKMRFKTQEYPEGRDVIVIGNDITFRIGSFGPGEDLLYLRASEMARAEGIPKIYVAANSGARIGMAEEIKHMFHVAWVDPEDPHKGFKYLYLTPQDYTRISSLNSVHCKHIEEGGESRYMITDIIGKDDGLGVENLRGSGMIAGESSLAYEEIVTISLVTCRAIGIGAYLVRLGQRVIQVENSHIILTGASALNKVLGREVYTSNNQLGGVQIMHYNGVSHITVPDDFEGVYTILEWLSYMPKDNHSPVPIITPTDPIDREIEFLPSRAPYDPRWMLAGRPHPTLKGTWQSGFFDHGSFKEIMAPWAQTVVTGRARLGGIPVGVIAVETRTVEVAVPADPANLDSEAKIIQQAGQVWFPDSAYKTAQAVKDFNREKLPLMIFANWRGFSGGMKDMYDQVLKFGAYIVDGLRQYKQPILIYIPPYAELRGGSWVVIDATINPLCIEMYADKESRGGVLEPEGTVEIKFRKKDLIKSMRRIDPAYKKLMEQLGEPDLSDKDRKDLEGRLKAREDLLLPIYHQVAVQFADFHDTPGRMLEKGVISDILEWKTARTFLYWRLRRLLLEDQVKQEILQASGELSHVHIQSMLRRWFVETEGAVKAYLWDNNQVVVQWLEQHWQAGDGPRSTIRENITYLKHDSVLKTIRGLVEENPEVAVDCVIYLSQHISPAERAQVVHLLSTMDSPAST

This test addresses T1, human ACCβ (Homo sapiens, UniProt O00763).
T1 construct: The cloning of the full length human muscle-type ACCβ cDNA and expression in HEK293 cells; made in house; host or cells: HEK293 cells (ATCC CRL-1573), transfected with plasmid pRF33D
Description: Radiometric ACCβ enzyme inhibition assay ([14C]NaHCO3 incorporation into malonyl-CoA). The class given is biochemical. Particulars: human muscle-type ACCβ expressed in HEK293 cells; saturating substrate concentrations; 37° C., 45 min. How it is done:
Production and Characterization of Human ACCβ Enzyme, Its Use in ACC Activity Assays and for Inhibition Studies
The cloning of the full length human muscle-type ACCβ cDNA and expression in HEK293 cells (ATCC, # CRL-1573) was performed as follows. The ACCβ cDNA was amplified by the polymerase chain reaction (PCR) and was cloned using standard recombinant DNA techniques. The PCR reaction was performed with the Expand Long Template PCR System (Roche Molecular Biochemicals, # 1 681 8340) and 0.5 ng of cDNA from human skeletal muscle as template. The primers used for PCR amplification were designed on the basis of the published sequence of the human ACCβ cDNA isolated from a human liver cDNA library (Abul-Elheiga et al. J. Biol. Chem. 272, 10669-10677, 1997). The sequence of the forward primer ACCB1 was 5′-[…]-3′; it includes a NheI restriction cleavage site for subcloning and a Kozak translation initiation consensus sequence preceding the ATG start codon. The sequence of the reverse primer ACCB8 was 5′-[…]-3′; it includes a stop codon and a XhoI restriction cleavage site for subcloning. The amplified DNA fragment of approximately 7.4 kb was cloned into a mammalian expression vector. The resulting plasmid isolates, pRF33A, B, C, D, and E were individually transfected in human embryonic kidney 293 cells (HEK293) using a standard lipid transfection method. Cell extracts of transfected cells were prepared in a lysis buffer containing 0.4 mg/ml digitonin and enzyme activity was determined using a radiometric ACC activity assay as described below. Plasmid pRF33D gave the highest activity and was chosen for large scale transfections of HEK293 cells and enzyme purification.
Since ACC enzyme activities in crude cell lysates were very low, enrichment of ACCβ enzyme expressed in HEK293 cells was achieved by a single anion exchange chromatography step. Cell lysates were run over a 5 ml Econo Pac High Q column (Bio-Rad, # 732-0027). Bound proteins were eluted by a gradient of NaCl from 0 to 1 M in 50 mM Tris-HCl, pH 7.5, 1 mM DTT, 5% glycerol. Fractions containing high ACCβ enzyme activity were pooled and stored at −20° C.
Standard ACCβ enzyme assays, in a total volume of 100 μl, contained 50 mM HEPES-KOH, pH 7.5, 10 mM K-citrate, 10 mM MgSO4, 1 mM ATP, 0.1 mM DTT, 2% DMSO, 0.1 mg/ml fatty acid-free BSA, 0.2 mM acetyl-CoA, 2 mM KHCO3, 0.2 mM [^14C]NaHCO3 (50-60 mCi/mmol) and cell lysate or purified ACCβ enzyme. Reactions were incubated at 37° C. for 45 min. and stopped by the addition of 50 μl of 2 N HCl. Terminated reactions were incubated at 50° C. over night to evaporate non-incorporated [^14C]NaHCO3. [^14C]-labeled malonyl-CoA reaction product was quantitated by liquid scintillation counting after the addition of 20 μl of Microscint 20 (Canberra Packard, # 6013621) on a TopCount NXT microplate scintillation counter (Canberra Packard).
Inhibition of ACCβ activity was determined at saturating substrate concentrations with two-fold serial dilutions of test compounds spanning a concentration range of at least two log units. IC50 values were calculated with the GraFit software (Erithacus Software Ltd.).
As for `CCOC(=O)c1cccc(C#Cc2ccc3c(c2)OCC(C)(C)CO3)c1` [Example 15, 3-(3,3-Dimethyl-3,4-dihydro-2H-benzo[b][1,4]dioxepin-7-ylethynyl)-benzoic acid ethyl ester], the IC50 (commonly the concentration that gives 50% inhibition) came out at 3.11 µM. With `COc1cccc(C#Cc2ccc3c(c2)OCC(C)(C)CO3)c1` [Example 5, 7-(3-Methoxy-phenylethynyl)-3,3-dimethyl-3,4-dihydro-2H-benzo[b][1,4]dioxepine], the IC50 was 42.2 µM. In turn, `CCOC(=O)c1ccc(OCc2ccc3c(c2)OCC(C)(C)CO3)cc1` [Example 23, 4-(3,3-Dimethyl-3,4-dihydro-2H-benzo[b][1,4]dioxepin-7-ylmethoxy)-benzoic acid ethyl ester] showed an IC50 of 0.25 µM. To `CC1(C)COc2ccc(C#Cc3ccc4c(c3)CCO4)cc2OC1` [Example 9, 7-(2,3-Dihydro-benzofuran-5-ylethynyl)-3,3-dimethyl-3,4-dihydro-2H-benzo[b][1,4]dioxepine] belongs 15.1 µM; to `Cn1nnc(-c2ccc(C#Cc3ccc4c(c3)OCC(C)(C)CO4)cc2)n1` [Example 14, 5-[4-(3,3-Dimethyl-3,4-dihydro-2H-benzo[b][1,4]dioxepin-7-ylethynyl)-phenyl]-2-methyl-2H-tetrazole], 11.2 µM; to `CCOc1ccc(C#Cc2ccc3c(c2)OCC(C)(C)CO3)cc1` [Example 7, 7-(4-Ethoxy-phenylethynyl)-3,3-dimethyl-3,4-dihydro-2H-benzo[b][1,4]dioxepine], 1.44 µM.

`CCOC(=O)c1ccc(C#Cc2ccc3c(c2)OCC(C)(C)CO3)cn1` [Example 13, 5-(3,3-Dimethyl-3,4-dihydro-2H-benzo[b][1,4]dioxepin-7-ylethynyl)-pyridine-2-carboxylic acid ethyl ester]: half-maximal inhibition (IC50) was put at 5.41 µM. On to `CCCOc1ccc(C#Cc2ccc3c(c2)OCC(C)(C)CO3)cc1` [Example 21, 3,3-Dimethyl-7-(4-propoxy-phenylethynyl)-3,4-dihydro-2H-benzo[b][1,4]dioxepine], for which the IC50 came to 0.01 µM.
